Source: patent publication US9828299B2, “Methods for rendering micellar coordination complexes safe for the treatment of plants and formulations for same” (Innovation Hammer LLC, priority 2012, dated 2017)

Legend:
[1] = tested on: waxy foliar surfaces of oleander leaves; assay: Effective spreading of water droplets on waxy foliar surfaces, determined visually; conditions: oleander leaf, visual determination
From the text: Experimental biology investigations show an exemplary synergism of EAA to random block copolymer (RBC) using the formulations of the invention to visually determine the effect of concentration of the compounds on the effective spreading of water droplets on waxy foliar surfaces of oleander leaves. The following is an exemplary effective spreading of water droplet on a waxy leaf based on EAA synergist: • Leaf Plant Type Effective water droplet spreading • RBC EAA RBC+EAA • Oleander 0.6% 1% 0.3%+0.86%

[2] = Critical micelle concentration; type: physicochemical
From the text: Ketoesters also are a source of metabolizable micellar nanoparticles for transepidermal transport; i.e., at or above the CMC of a ketoester. For example, when applied to a leaf at or above the CMC 6.48 mol % of the β-ketoester, EAA is an effective wetter and spreader of water-based solutions. This is particularly true of EAA when applied at CMC on leaves of green plants. Furthermore, by bringing the ketoester to CMC, other compounds in solution synergistically rise to CMC. For example, in the embodiments disclosed herein, physical characteristics of the CMC of the ketoester, MAA, are applied to create zinc depots.

Petunia = assay: Effective foliar application dose of safened ketoester formulations (synergism EAA/cosolvent); type: in vivo
[3] = Solubility of ketoester coordination complex
Protocol: One suitable coordination complex may be made, for example, by dissolving 10 mg ferric nitrate nonahydrate, in 1 ml water with stirring at room temperature until the solution is clear with all crystals dissolved; to the aqueous iron solution, 1 ml MAA is added with rapid stirring for 5-50 minutes or more to allow formation of the coordination complex. […] Other compositions include the following: micellar ketoester-zinc-ketoester, Zn-MNP; and micellar ketoester-copper-ketoester, Cu-MNP.
A process for novel synthesis of an MNP from iron salt is as follows: The aqueous saturated solution of 1 g ferric chloride hexahydrate is dissolved in 10 ml EAA with rapid stirring for 1 minute or more to the formation of the coordination complex.

Row | Structure (SMILES) | Effective water droplet spreading (concentration) [1] | CMC (critical micelle concentration) [2] | effective foliar application dose (Petunia) | solubility in IPA ([3]; IPA) | solubility in water ([3]; water)
1 | CCOC(=O)CC(C)=O [EAA, ethyl acetoacetate] | 1% | 6.48 mol % | 100 mM | – | –
2 | CCOC(=O)CC(C)=O.[Fe+3] [Fe-EAA, ferric(III)-ethyl acetoacetate] | – | – | – | soluble | insoluble
